Results on two compounds are retold here after patent US7993627B2, “Methods for determining whether a compound alters the amount of at least one αβ (X-41) peptide and the amount of either total αβ or at least one αβ (X-40) peptide produced by a non-human mammal” (Elan Pharmaceuticals, Inc., priority 1996, dated 2011).

Where a SMILES comes first, the peptide text is derived from it. The star is where a group is joined. Cbz = O=C(OCc1ccccc1)*

The test system of test [1] is K695sw cells. Nature of the test: Pulse-chase labeling and immunoprecipitation of chase media and cell lysates (APP processing). It counts as cell-based, human. The procedure:
We first set out to reproduce the published results of Higaki et al. (1995) Neuron, 14:651-659 on the action of the compound MDL 28170 on APP processing, using human kidney 293 cells stably expressing APP695 with the Swedish FAD mutation (K695sw cells). Our experiments were done using a pulse-chase paradigm: K695sw cells were labeled for 2 hours with 35S-methionine and then chased for 2 hours in the presence of 200 μM MDL 28170. Aliquots of the chase media from treated and untreated cells were subjected to SDS-PAGE.
To address this question, we performed pulse-chase experiments on K695sw cells using different doses of MDL 28170, followed by sequential immunoprecipitation of the same media first with 21F12, a monoclonal antibody raised against amino acids 33-42 of Aβ (described above) which specifically precipitates Aβ peptides ending at position 42, and then with antibody 1282 which precipitates all forms of Aβ and p3 (Haass et al., (1992b) Nature 359:322-325) (FIG. 4A). […] Using MDL 28170 at 200 μM, the experiment was repeated four times and the results were quantitated by phosphorimaging (FIG. 4B).
All transfected cell lines described here carry derivatives of pCMV695, a plasmid carrying APP695 under control of the CMV promoter (Selkoe, (1988) Proc. Natl. Acad. Sci. 85:7341-7345) K695sw are human embryonic kidney 293 cells stably transfected with a construct carrying the AD-linked double (“Swedish”) mutation K595N/M596L (Citron et al. (1992) Nature, 360:672-674); K695717I are 293 cells stably transfected with APP695 carrying the mutation V717I (valine to isoleucine at position 717 in the APP770 numbering system). CHO695 are Chinese hamster ovary cells (CHO) stably transfected with pCMV695 (Oltersdorf (1990) J. Biol. Chem. 265:4432-4437) SKN695 are SK-N-SH human neuroblastoma cells stably transfected with pCMV695.
To analyze the effect of MDL 28170 on the processing of APP, cells were grown to confluence in two 10 cm dishes, pulse-labeled with 600 μCi of [^35S]-methionine in 4 ml of serum-free medium for 2 hours and then chased for 2 hours with 4 ml medium containing 10% fetal bovine serum and the indicated final concentration of MDL 28170 (initially dissolved at 200 mM. in DMSO). Control dishes were treated with DMSO alone.
Conditioned media and cell lysates were analyzed by immunoprecipitation, as described (Haass, et al. (1992) Nature 359:322-325). Polyclonal antibody R1736 to residues 595-611 of APP695 was used to precipitate α-APPs (Haass, (1994) J. Biol. Chem. 269:17741-17748). This antibody recognizes an epitope that is specific for the free COOH-terminus of α-cleaved APPs. Polyclonal antibody R1282 was generated to synthetic Aβ1-40 (Haass, et al. (1992) Nature 359:322-325). […]

The subject of test [2] is total Aβ and total p3. To be noted: literature; cited from earlier work.

Consider `CC(C)[C@H](NC(=O)OCc1ccccc1)C(=O)N[C@H](C=O)Cc1ccccc1` [MDL 28170] (Cbz-Val-Phe-aldehyde), for which, in test [1] (200 μM during 2 h chase), the “β-secretase activity (β-cleaved APPs, antibody 192sw immunoprecipitation)” value is reported as “does not significantly inhibit”.
Consider `CCCC(=O)O[C@@H]1[C@@H](C)[C@@]2(O)[C@@H](C=C(CO)C[C@]3(O)C(=O)C(C)=C[C@@H]23)[C@@H]2C(C)(C)[C@]12OC(=O)CCC` [PDBu], for which, in test [2], the “total Aβ” value is listed as “decrease” and the “total p3” value is on record as “increase”. In test [1] (1 μM PDBu, 2 h pulse 2 h chase), the “Aβ(42) (antibody 21F12)” value was “decreases”, the “p3(42) (antibody 21F12)” value is “increase” and the “total Aβ (subsequent R1282)” value is reported as “decreases”.
